From BindingDB's records for doi:10.1021/np50113a004 (1994)

Legend:
[1] = Inhibition of LFA1 expressed in human JY cells interaction with ICAM1-IG expressed in human HeLa cell monolayer after 45 mins by cell adhesion assay
[2] = target: T1, Integrin alpha-L (Homo sapiens, UniProt P20701); assay: Inhibition of LFA1 expressed in human JY cells interaction with ICAM1-IG expressed in human HeLa cell monolayer after 45 mins by cell adhesion assay
T1 sequence (P20701 whole entry): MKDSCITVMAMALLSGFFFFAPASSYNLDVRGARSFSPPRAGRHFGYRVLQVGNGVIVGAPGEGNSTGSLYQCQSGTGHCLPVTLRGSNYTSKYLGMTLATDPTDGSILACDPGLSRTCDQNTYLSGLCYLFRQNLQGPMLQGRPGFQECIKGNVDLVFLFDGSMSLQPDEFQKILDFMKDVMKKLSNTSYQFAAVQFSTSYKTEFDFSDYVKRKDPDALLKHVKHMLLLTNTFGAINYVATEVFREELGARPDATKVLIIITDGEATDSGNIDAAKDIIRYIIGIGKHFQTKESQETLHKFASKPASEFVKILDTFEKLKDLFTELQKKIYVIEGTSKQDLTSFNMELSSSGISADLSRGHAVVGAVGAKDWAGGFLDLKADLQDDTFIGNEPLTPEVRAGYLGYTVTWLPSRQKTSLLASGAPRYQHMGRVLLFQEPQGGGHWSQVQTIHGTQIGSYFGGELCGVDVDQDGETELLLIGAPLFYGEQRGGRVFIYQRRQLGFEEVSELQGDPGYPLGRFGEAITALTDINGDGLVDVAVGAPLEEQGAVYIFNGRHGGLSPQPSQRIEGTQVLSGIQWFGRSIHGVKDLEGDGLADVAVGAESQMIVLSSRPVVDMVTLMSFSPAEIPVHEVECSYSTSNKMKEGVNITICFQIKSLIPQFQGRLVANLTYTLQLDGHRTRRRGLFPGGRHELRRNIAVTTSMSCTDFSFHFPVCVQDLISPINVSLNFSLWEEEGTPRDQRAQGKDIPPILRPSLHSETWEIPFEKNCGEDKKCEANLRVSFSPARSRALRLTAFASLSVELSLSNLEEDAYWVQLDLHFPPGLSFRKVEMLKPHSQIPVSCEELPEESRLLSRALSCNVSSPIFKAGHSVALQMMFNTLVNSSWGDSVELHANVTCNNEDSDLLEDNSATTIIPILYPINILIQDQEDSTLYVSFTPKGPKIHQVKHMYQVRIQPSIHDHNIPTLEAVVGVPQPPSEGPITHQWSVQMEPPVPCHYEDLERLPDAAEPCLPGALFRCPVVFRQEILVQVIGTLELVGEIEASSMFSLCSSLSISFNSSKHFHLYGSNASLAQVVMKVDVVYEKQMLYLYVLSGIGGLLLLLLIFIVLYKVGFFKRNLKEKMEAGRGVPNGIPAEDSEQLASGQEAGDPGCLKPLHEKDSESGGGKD

Structure (SMILES) | IC50 [1] | IC50 [2]
CC(C)(O)/C=C/C(=O)[C@@](C)(O)[C@H]1[C@H](O)C[C@@]2(C)[C@@H]3CC=C4[C@@H](C[C@H](O)C(=O)C4(C)C)[C@]3(C)C(=O)C[C@]12C | 1360 nM | –
CC(C)(O)CCC(=O)[C@@](C)(O)C1[C@H](O)C[C@@]2(C)[C@@H]3CC=C4C(CC(=O)C(=O)C4(C)C)[C@]3(C)C(=O)C[C@]12C (stereo partly drawn) [Cucurbitacin L] | – | > 50000 nM
CC(C)(O)C=CC(=O)[C@](C)(O)[C@H]1[C@H](O)C[C@@]2(C)[C@@H]3CC=C4[C@@H](CC(=O)C(=O)C4(C)C)[C@]3(C)C(=O)C[C@]12C [NSC-521777] | – | 950 nM
